Data published in ChEMBL document CHEMBL3991601, “The target landscape of clinical kinase drugs” (Science, 2017).
Activity calls are given as the source filed them. For most assays here, no stated cut-off is given here; in the data, actives have a measured Kd and inactives only a lower limit.

Assays:
[1] = biological target: T1, AarF domain-containing protein kinase 1 (Homo sapiens, UniProt Q86TW2)
T1 sequence (Q86TW2 whole entry): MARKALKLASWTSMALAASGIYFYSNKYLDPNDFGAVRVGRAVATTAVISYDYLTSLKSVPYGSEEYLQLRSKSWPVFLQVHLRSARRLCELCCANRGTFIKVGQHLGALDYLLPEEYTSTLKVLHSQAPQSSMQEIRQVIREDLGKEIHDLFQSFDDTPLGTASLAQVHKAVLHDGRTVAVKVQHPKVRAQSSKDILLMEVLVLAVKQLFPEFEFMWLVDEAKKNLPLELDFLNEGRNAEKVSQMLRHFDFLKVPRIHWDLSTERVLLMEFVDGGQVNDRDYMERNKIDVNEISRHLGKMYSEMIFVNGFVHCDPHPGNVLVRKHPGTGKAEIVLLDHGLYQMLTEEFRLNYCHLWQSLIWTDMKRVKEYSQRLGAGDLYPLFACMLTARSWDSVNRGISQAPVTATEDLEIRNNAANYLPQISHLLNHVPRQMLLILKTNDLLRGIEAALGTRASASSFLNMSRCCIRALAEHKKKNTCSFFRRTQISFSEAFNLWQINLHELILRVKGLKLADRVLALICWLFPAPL

[2] = biological target: Calcium/calmodulin-dependent protein kinase kinase 2 (Homo sapiens, UniProt Q96RR4)
[3] = biological target: Cyclin-dependent kinase 7 (Homo sapiens, UniProt P50613)
[4] = biological target: T2, Ferrochelatase, mitochondrial (Homo sapiens, UniProt P22830)
T2 sequence (P22830 whole entry): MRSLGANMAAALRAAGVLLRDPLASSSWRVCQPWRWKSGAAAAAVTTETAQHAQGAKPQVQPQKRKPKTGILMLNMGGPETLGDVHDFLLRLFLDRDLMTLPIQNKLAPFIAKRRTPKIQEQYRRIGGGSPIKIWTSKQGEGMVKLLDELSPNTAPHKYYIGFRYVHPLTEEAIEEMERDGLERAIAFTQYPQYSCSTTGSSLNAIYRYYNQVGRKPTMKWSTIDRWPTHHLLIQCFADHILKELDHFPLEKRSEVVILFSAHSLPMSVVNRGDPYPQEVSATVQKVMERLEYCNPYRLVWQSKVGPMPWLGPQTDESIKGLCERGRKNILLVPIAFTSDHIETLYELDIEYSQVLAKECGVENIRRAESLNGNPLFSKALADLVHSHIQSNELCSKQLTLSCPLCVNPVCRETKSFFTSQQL

[5] = biological target: T3, Dual specificity mitogen-activated protein kinase kinase 6 (Homo sapiens, UniProt P52564)
T3 sequence (P52564 whole entry): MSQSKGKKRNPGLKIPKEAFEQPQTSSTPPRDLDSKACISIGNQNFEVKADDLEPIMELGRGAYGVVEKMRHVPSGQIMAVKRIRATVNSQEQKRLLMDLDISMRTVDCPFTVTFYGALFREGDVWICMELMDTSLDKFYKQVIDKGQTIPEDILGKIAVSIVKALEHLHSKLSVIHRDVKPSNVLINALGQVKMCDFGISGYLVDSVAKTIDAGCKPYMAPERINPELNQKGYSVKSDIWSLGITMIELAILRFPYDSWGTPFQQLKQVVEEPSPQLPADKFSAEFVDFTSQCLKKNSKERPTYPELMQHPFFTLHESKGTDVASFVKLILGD

[6] = biological target: Midasin (Homo sapiens, UniProt Q9NU22)
[7] = biological target: T4, Serine/threonine-protein kinase Nek2 (Homo sapiens, UniProt P51955)
T4 sequence (P51955 whole entry): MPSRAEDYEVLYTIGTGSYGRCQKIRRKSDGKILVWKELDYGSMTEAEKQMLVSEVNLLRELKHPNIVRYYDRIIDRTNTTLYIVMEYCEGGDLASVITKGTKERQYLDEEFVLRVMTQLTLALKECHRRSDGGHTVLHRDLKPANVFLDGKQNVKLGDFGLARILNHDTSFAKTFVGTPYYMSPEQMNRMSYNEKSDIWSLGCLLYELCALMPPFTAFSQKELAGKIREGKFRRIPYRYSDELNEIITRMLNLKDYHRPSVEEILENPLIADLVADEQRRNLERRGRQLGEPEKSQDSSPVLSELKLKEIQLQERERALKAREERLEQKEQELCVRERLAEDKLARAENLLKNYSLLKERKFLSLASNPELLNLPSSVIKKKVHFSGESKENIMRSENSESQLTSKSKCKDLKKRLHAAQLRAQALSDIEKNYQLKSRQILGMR

[8] = biological target: Proto-oncogene tyrosine-protein kinase Src (Homo sapiens, UniProt P12931)
[9] = biological target: T5, Tyrosine--tRNA ligase, cytoplasmic (Homo sapiens, UniProt P54577)
T5 sequence (P54577 whole entry): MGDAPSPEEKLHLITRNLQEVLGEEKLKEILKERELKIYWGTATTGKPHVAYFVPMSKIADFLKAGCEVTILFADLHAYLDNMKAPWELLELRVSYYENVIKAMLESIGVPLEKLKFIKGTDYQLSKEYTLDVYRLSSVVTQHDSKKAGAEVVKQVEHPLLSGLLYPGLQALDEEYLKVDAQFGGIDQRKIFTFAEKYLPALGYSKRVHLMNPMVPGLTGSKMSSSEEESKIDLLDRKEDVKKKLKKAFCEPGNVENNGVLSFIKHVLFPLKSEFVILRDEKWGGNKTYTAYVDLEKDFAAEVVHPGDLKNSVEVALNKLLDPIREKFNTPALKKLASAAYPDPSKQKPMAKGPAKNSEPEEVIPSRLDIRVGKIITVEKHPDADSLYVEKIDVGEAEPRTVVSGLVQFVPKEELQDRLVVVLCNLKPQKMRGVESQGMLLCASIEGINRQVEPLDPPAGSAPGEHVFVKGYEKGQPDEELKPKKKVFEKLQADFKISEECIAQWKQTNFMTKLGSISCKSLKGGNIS

[10] = biological target: T6, Uncharacterized protein FLJ45252 (Homo sapiens, UniProt Q6ZSR9); settings: read-out: Kd apparent; k-562, colo 205, sk-n-be(2) and mv-4-11
T6 sequence (Q6ZSR9 whole entry): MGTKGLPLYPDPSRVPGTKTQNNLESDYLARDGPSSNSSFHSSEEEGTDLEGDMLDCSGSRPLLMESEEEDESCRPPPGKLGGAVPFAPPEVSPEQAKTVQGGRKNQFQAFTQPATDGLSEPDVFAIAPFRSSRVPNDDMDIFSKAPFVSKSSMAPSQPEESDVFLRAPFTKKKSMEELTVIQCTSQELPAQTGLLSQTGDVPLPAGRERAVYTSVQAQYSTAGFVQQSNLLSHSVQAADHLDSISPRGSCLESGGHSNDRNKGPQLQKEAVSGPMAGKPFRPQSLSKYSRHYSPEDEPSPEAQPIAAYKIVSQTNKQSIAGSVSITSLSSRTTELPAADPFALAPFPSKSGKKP

Cyclin-dependent kinase 7, sequence (P50613 whole entry): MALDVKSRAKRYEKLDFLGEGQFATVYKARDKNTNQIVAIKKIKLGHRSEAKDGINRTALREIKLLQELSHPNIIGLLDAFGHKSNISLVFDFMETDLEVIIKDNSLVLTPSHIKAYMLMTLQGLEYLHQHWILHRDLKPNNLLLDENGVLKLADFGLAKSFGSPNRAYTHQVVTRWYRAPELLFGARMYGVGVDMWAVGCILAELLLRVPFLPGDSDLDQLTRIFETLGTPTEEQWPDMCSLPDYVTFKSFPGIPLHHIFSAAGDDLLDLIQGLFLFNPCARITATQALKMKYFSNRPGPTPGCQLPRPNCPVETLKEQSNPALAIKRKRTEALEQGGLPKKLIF
Calcium/calmodulin-dependent protein kinase kinase 2, sequence (Q96RR4 whole entry): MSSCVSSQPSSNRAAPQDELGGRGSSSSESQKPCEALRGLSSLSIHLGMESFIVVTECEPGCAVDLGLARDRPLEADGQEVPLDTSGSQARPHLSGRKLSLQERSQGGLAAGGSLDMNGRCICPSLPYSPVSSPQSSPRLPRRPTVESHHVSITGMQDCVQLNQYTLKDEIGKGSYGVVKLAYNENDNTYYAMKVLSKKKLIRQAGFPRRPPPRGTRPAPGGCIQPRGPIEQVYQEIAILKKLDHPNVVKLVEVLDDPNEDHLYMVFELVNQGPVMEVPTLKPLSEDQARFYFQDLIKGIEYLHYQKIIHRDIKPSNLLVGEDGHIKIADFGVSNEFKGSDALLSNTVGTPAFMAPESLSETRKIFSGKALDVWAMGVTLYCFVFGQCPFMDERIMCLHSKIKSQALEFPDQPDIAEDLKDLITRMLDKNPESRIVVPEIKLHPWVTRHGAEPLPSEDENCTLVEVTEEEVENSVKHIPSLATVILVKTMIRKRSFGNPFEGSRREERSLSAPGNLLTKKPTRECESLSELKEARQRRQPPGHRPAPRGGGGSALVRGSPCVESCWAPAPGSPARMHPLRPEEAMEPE
Proto-oncogene tyrosine-protein kinase Src, sequence (P12931 2-536 limits assumed): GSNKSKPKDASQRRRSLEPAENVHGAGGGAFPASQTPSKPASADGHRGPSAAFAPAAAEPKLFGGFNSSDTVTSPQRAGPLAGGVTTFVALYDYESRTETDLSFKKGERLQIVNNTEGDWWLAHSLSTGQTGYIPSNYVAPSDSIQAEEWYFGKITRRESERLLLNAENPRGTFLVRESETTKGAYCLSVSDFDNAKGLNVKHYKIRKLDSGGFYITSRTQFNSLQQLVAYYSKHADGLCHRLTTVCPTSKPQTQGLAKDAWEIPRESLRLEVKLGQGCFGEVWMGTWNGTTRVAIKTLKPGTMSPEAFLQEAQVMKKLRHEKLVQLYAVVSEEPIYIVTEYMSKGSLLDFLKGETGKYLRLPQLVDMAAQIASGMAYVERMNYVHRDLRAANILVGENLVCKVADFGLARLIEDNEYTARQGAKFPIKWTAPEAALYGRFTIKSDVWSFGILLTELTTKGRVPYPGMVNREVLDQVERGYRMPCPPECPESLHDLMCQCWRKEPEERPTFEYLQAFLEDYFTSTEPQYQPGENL

| Kd [1] | Kd [2] | Kd [3] | Kd [4] | Kd [5] | Kd [6] | Kd [7] | Kd [8] | Kd [9] | Kd [10] | Compound |
| --- | --- | --- | --- | --- | --- | --- | --- | --- | --- | --- |
| > 30 µM (inactive) | > 30 µM (inactive) | > 30 µM (inactive) | > 30 µM (inactive) | > 30 µM (inactive) | > 30 µM (inactive) | > 30 µM (inactive) | > 30 µM (inactive) | > 30 µM (inactive) | > 30 µM (inactive) | CC(C)Nc1cc(-c2c[nH]c(C(=O)N[C@H](CO)c3cccc(Cl)c3)c2)c(Cl)cn1 [ULIXERTINIB] |
| > 30 µM (inactive) | > 30 µM (inactive) | > 30 µM (inactive) | 1.42 µM (active) | > 30 µM (inactive) | > 30 µM (inactive) | > 30 µM (inactive) | > 30 µM (inactive) | > 30 µM (inactive) | > 30 µM (inactive) | CCCS(=O)(=O)Nc1ccc(F)c(C(=O)c2c[nH]c3ncc(-c4ccc(Cl)cc4)cc23)c1F [VEMURAFENIB] |
| 0.202 µM (active) | > 30 µM (inactive) | > 30 µM (inactive) | > 30 µM (inactive) | > 30 µM (inactive) | > 30 µM (inactive) | > 30 µM (inactive) | > 30 µM (inactive) | > 30 µM (inactive) | 0.007 µM (active) | O=C(Nc1ccc(-c2ccnc(Nc3ccc(N4CCOCC4)cc3)n2)cc1)C1CCCN1 (stereo not given) [XL-019] |

The next lines start with the compound.

| Compound | Kd [1] | Kd [2] | Kd [3] | Kd [4] | Kd [5] | Kd [6] | Kd [7] | Kd [8] | Kd [9] | Kd [10] |
| --- | --- | --- | --- | --- | --- | --- | --- | --- | --- | --- |
| CN1N=C(N)c2cn([C@@H]3O[C@H](COP(=O)(O)O)[C@@H](O)[C@H]3O)c3ncnc1c23 [TRICIRIBINE PHOSPHATE] | > 30 µM (inactive) | > 30 µM (inactive) | > 30 µM (inactive) | > 30 µM (inactive) | > 30 µM (inactive) | > 30 µM (inactive) | > 30 µM (inactive) | > 30 µM (inactive) | > 30 µM (inactive) | > 30 µM (inactive) |
| CCn1c(=O)c(-c2cc[nH]n2)cc2c(C)nc(N)nc21 [VOXTALISIB] | > 30 µM (inactive) | > 30 µM (inactive) | > 30 µM (inactive) | > 30 µM (inactive) | > 30 µM (inactive) | > 30 µM (inactive) | > 30 µM (inactive) | > 30 µM (inactive) | > 30 µM (inactive) | > 30 µM (inactive) |
